Source: publication PMC4411097, “Pachymic Acid Inhibits Growth and Induces Apoptosis of Pancreatic Cancer In Vitro and In Vivo by Targeting ER Stress” (PLoS ONE, 2015)

Legend:
[1] = system: advanced pancreatic cancer; settings: cited from earlier work
[2] = system: MIA PaCa-2 cells; experiment: Apoptosis, Cell Death Detection ELISA (cytoplasmic histone-associated DNA fragments); assay type: cell-based, human; settings: MIA PaCa-2, TUDCA 200 μM with PA 30 μM, 24 h
Method: (§1) Apoptosis induction in PA-treated cells was assessed by quantitation of cytoplasmic histone-associated DNA fragments and western blotting for PARP cleavage (c-PARP). The Cell Death Detection ELISA^PLUS Kit (Roche, Indianapolis, IN) was used to detect the amount of cytoplasmic histone-associated DNA fragments according to the manufacturer’s instructions and expressed relative to vehicle-treated cells (set equal to 1).

[3] = system: PANC-1 cells; experiment: as above; assay type: cell-based, human; settings: PANC-1, TUDCA 200 μM with PA 30 μM, 24 h
Method: as §1

[4] = system: PARP cleavage (c-PARP) in MIA PaCa-2 cells; experiment: Western blot for PARP cleavage (c-PARP); assay type: cell-based, human; settings: MIA PaCa-2, TUDCA 200 μM with PA 30 μM, 24 h
Method: as §1
(§2) PANC-1, MIA PaCa-2 cells were treated with PA (0–30 μM) for 10 min, 30 min or 24 h, respectively. Whole protein extracts isolated from cells and tumor tissues were prepared and western blot analysis with anti-cleaved PARP, anti-XBP-1s, anti-ATF6, anti-ATF4, anti-Hsp70, anti-CHOP, anti-phospho-eIF2α or anti-eIF2α antibodies were performed as previously described. Western blots were quantified with HP-Scanjet 550c and analyzed by UN-SCAN-IT software (Silk Scientific, Orem, UT). Three independent experiments were done for all the immunoblot studies and quantitative data composed of all the experiments with statistical analysis were added below the representative blot image.

[5] = system: PARP cleavage (c-PARP) in PANC-1 cells; experiment: Western blot for PARP cleavage (c-PARP); assay type: cell-based, human; settings: PANC-1, TUDCA 200 μM with PA 30 μM, 24 h
Method: as §1, §2

[6] = system: ER stress response proteins in MIA PaCa-2 cells; experiment: Western blot of ER stress response proteins; assay type: cell-based, human; settings: MIA PaCa-2, TUDCA 200 μM with PA 30 μM, 24 h
Method: as §2

[7] = system: ER stress response proteins in PANC-1 cells; experiment: Western blot of ER stress response proteins; assay type: cell-based, human; settings: PANC-1, TUDCA 200 μM with PA 30 μM, 24 h
Method: as §2

Row | Structure (SMILES) | Response rate ([1]; advanced pancreatic cancer) | Median survival time ([1]; pancreatic cancer) [months] | Tumor response rate ([1]; pancreatic cancer) [%] | Effect of TUDCA on PA-associated nuclear DNA fragmentation [2] | Effect of TUDCA on PA-associated nuclear DNA fragmentation [3] | Effect of TUDCA on PA-associated c-PARP expression [4] | Effect of TUDCA on PA-associated c-PARP expression [5] | Effect of TUDCA on PA-induced ATF4 and CHOP [6] | Effect of TUDCA on PA-induced ATF4 and CHOP [7]
1 | Nc1ccn([C@@H]2O[C@H](CO)[C@@H](O)C2(F)F)c(=O)n1 [Gemcitabine] | less than 20% | 5 | 12 | – | – | – | – | – | –
2 | C[C@H](CCC(=O)NCCS(=O)(=O)O)[C@H]1CC[C@H]2[C@@H]3[C@@H](O)C[C@@H]4C[C@H](O)CC[C@]4(C)[C@H]3CC[C@]12C [TUDCA, tauroursodeoxycholic acid, reference compound] | – | – | – | rescued | rescued | blocked the enormous increase in the expression of c-PARP | blocked the enormous increase in the expression of c-PARP | blocked the induction of ATF4 and CHOP | blocked the induction of ATF4 and CHOP
